Experimental findings from PubChem BioAssay (NCI) are described below.

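In this assay, cells in 96-well plates receive the compound at five concentrations for 48 hours. Endpoints are linearly interpolated between the surrounding concentrations. Abbreviation: GI50, concentration required for 50% inhibition of growth. TGI marks complete inhibition of growth.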 Some results are limits rather than exact numbers.

For the first test, the system named is COLO 205 colon. Kind of test: NCI anticancer screen, dose series, 48 h.
Consider `COc1cc(N2C(=O)[C@H](O)C2c2ccc(SC)cc2)cc(OC)c1OC` (some centres not stated), for which the GI50 is 0.0101 µM and the TGI stood at 0.0357 µM.
As to `CC/C=C\C/C=C\C/C=C\CCCCCCCC(=O)OCC(O)CO` (configuration not stated), the TGI is greater than 100 µM.
The same measure, in the same setting: the same measure for `Cc1cccc(C)c1NC(=O)/C(=N/NC(N)=S)C(C)C(=O)c1ccc(Cl)cc1` (configuration not stated): greater than 100 µM; for `N#CC(C#N)=C1NC(=O)CC(=O)N1`: greater than 100 µM; for `Fc1ccc(C2SCc3nc4ccccc4n32)c(F)c1` (configuration not stated): greater than 100 µM.
Consider `CO/N=C(\COc1ccc2c(c1)[nH]c1ccccc12)c1ccc(F)cc1`, for which the GI50 is greater than 100 µM and the TGI is greater than 100 µM.
The compound `COc1cc(C(=O)C/C(CCC(=O)Nc2ccccc2[N+](=O)[O-])=N\NC(N)=O)ccc1O` registered a TGI greater than 100 µM.
Still for that read-out and setting: the same measure for `CCN(CC)CC1c2ccccc2C(CNc2ccccc2)N1C` (configuration not stated): greater than 100 µM.
As to `O=C(/C=C\c1cccc([N+](=O)[O-])c1)/C=C/c1cccc([N+](=O)[O-])c1`, the GI50 is 3.03 µM and the TGI turned out to be 7.94 µM.
As to `CC1(O)C=CC(=O)C=C1`, the TGI is greater than 100 µM.
On to `COc1cc2c3c(n(C)c(=O)c2cc1OC)-c1cc2c(cc1/C3=C\CCCCN1C(=O)c3ccccc3C1=O)OCO2`, for which the GI50 is 6.28 µM and the TGI was greater than 100 µM.
The compound `COc1ccc(-c2cc(Cc3cccs3)c(=O)[nH]n2)cc1` displayed a TGI greater than 100 µM.
For the compound `CC(=O)Nc1ccc(SC#N)c2c(NC(C)=O)cccc12`, the TGI was greater than 100 µM.
The compound `Cc1ccc(-c2nnc(-c3nn(-c4ccccc4)c4nc5ccccc5nc34)o2)cc1` had a TGI greater than 100 µM.
Still for that read-out and setting: the same measure for `NNC(=O)CS(=O)(=O)Nc1ncccn1`: greater than 100 µM.
Regarding `COc1cccc(OC(=O)c2ccc(C(F)(F)F)nc2Nc2cc(Cl)ccc2C)c1`, the GI50 is 4.04 µM and the TGI was greater than 100 µM.
Regarding `Cc1ccc2c(C3Cc4ccccc4N3C(=O)/C=C\C(=O)O)c(C)[nH]c2c1` (configuration not stated), the TGI was determined as 58.5 µM.
On the same count and under the same terms, then `COc1ccc(C=O)c([N+](=O)[O-])c1`, with greater than 100 µM.
In the case of `CCOC(=O)C1C(=S)NC(=O)C1C#N` (configuration not stated), the TGI was greater than 100 µM.
On the same count and under the same terms, the same measure for `COC(=O)C1(C)CCc2c(OC)ccc(OC)c2C1=O` (configuration not stated): greater than 100 µM; for `COC(=O)C1CC2CC(=NNC(N)=O)CC2C1` (configuration not stated): greater than 100 µM.
Compound `CC#CCC1CCC(OCC)=CC1=O` (configuration not stated) showed a TGI greater than 100 µM.
Same read-out and setting: then `N#CC(=C1C=CC(=NO)C=C1)c1ccc(Cl)cc1`, with 34.5 µM; and `Cc1c(/C=N/N=C/c2[nH]c(C(=O)OC(C)(C)C)c(C)c2C)[nH]c(C(=O)OC(C)(C)C)c1C`, with greater than 100 µM; and `O=C(NC1CCCCC1)NS(=O)(=O)c1ccc2c(c1)CCC2`, with greater than 100 µM.
`CCOC(=O)C1=C(C)N(c2ccc(Cl)cc2)[C@]2(C#N)C(O)=C(Cl)C(Cl)=C(O)[C@]12C#N`: the GI50 is 59.6 µM and the TGI was greater than 100 µM.

The next test concerns HL-60(TB) leukemia. Description: NCI anticancer screen, dose series, 48 h.
In the case of `COc1cc(N2C(=O)[C@H](O)C2c2ccc(SC)cc2)cc(OC)c1OC` (some centres not stated), the GI50 was 10.6 nM and the TGI came out at 0.0448 µM.
In the case of `CCC(=O)C12OC3OC(C)(C)OC3C1OC(C)(C)O2` (configuration not stated), the TGI is greater than 100 µM.
The compound `CC/C=C\C/C=C\C/C=C\CCCCCCCC(=O)OCC(O)CO` (configuration not stated) had a TGI greater than 46 µM.
Consider `Cc1cccc(C)c1NC(=O)/C(=N/NC(N)=S)C(C)C(=O)c1ccc(Cl)cc1` (configuration not stated), for which the TGI was greater than 100 µM.
Compound `N#CC(C#N)=C1NC(=O)CC(=O)N1` had a TGI greater than 100 µM.
The same measure, in the same setting: the same measure for `Fc1ccc(C2SCc3nc4ccccc4n32)c(F)c1` (configuration not stated): 56.2 µM.
For the compound `CCCCCCCCCCCCCCCCCC[n+]1ccc2c(C)c3c(c(C)c2c1)c1cc(O)ccc1n3CC`, the GI50 is 2330 nM and the TGI stood at 12.4 µM.
Compound `COc1cc(C(=O)C/C(CCC(=O)Nc2ccccc2[N+](=O)[O-])=N\NC(N)=O)ccc1O` displayed a TGI greater than 100 µM.
`CCN(CC)CC1c2ccccc2C(CNc2ccccc2)N1C` (configuration not stated) displayed a TGI greater than 100 µM.
`CC1(O)C=CC(=O)C=C1`: the TGI worked out at 52.8 µM.
Compound `CC(=O)Nc1ccc(SC#N)c2c(NC(C)=O)cccc12` displayed a TGI of 71.5 µM.
On the same count and under the same terms, then `Cc1ccc(-c2nnc(-c3nn(-c4ccccc4)c4nc5ccccc5nc34)o2)cc1`, with greater than 100 µM; and `Cc1ccc2c(C3Cc4ccccc4N3C(=O)/C=C\C(=O)O)c(C)[nH]c2c1` (configuration not stated), with 43.8 µM.
Same read-out and setting: then `COc1ccc(C=O)c([N+](=O)[O-])c1`, with 23.6 µM; and `CCOC(=O)C1C(=S)NC(=O)C1C#N` (configuration not stated), with greater than 100 µM.
Still for that read-out and setting: the same measure for `COC(=O)C1(C)CCc2c(OC)ccc(OC)c2C1=O` (configuration not stated): greater than 100 µM.
Compound `COC(=O)C1CC2CC(=NNC(N)=O)CC2C1` (configuration not stated) yielded a TGI greater than 100 µM.
Still for that read-out and setting: then `CC#CCC1CCC(OCC)=CC1=O` (configuration not stated), with greater than 100 µM.
The same measure, in the same setting: the same measure for `O=C1CC(c2c[nH]c3ccccc23)C(=O)N1` (configuration not stated): greater than 100 µM; for `N#CC(=C1C=CC(=NO)C=C1)c1ccc(Cl)cc1`: 9.6 µM; for `Cc1c(/C=N/N=C/c2[nH]c(C(=O)OC(C)(C)C)c(C)c2C)[nH]c(C(=O)OC(C)(C)C)c1C`: greater than 100 µM.
`O=C(NC1CCCCC1)NS(=O)(=O)c1ccc2c(c1)CCC2`: the TGI was greater than 100 µM.
`CCOC(=O)C1=C(C)N(c2ccc(Cl)cc2)[C@]2(C#N)C(O)=C(Cl)C(Cl)=C(O)[C@]12C#N`: the GI50 was 88200 nM and the TGI was greater than 100 µM.

A further test has as its system HOP-62 NSCLC. Kind of test: NCI anticancer screen, dose series, 48 h.
Regarding `COc1cc(N2C(=O)[C@H](O)C2c2ccc(SC)cc2)cc(OC)c1OC` (some centres not stated), the GI50 was less than 10 nM and the TGI is greater than 100 µM.
Compound `CCC(=O)C12OC3OC(C)(C)OC3C1OC(C)(C)O2` (configuration not stated) yielded a TGI greater than 100 µM.
Still for that read-out and setting: the same measure for `CC/C=C\C/C=C\C/C=C\CCCCCCCC(=O)OCC(O)CO` (configuration not stated): greater than 100 µM; for `Cc1cccc(C)c1NC(=O)/C(=N/NC(N)=S)C(C)C(=O)c1ccc(Cl)cc1` (configuration not stated): greater than 100 µM; for `N#CC(C#N)=C1NC(=O)CC(=O)N1`: greater than 100 µM.
For `Fc1ccc(C2SCc3nc4ccccc4n32)c(F)c1` (configuration not stated), the TGI is greater than 100 µM.
As for `CCCCCCCCCCCCCCCCCC[n+]1ccc2c(C)c3c(c(C)c2c1)c1cc(O)ccc1n3CC`, the GI50 is 2660 nM and the TGI amounted to 10.4 µM.
